Test results from patent US5489609A (Zaidan Hoijn Seisan Kaihatsu Kagaku Kenkyusho, priority 1992, dated 1996).

Assays:
[1] = tested on: Hepatopathy in mice (carbon tetrachloride); experiment: Anti-hepatitis test: hepatopathy in mice (carbon tetrachloride); type: in vivo, ddy strain male mice; conditions: for ALT, mean ± S.D. / AST, mean ± S.D.: 200 mg/kg orally 3 h after carbon tetrachloride, blood 24 h after carbon tetrachloride, * p < 0.05; for suppressory activity (hepatopathy in mice): 200 mg/kg orally, in words
Procedure: A group of 8 ddy strain male mice (weighing about 30 g) kept fasting from the previous day was treated by intraperitoneal injection of 0.5% carbon tetrachloride in olive oil at a dose of 0.6 ml and thereafter allowed free access to food. Three hours after the administration of carbon tetrachloride, the test compound suspended in powdered gum arabic was given to the animals orally at a dose of 200 mg/kg, and blood samples were drawn from the mice under anesthesia with ether through the abdominal descending aorta 24 hours after the administration of carbon tetrachloride. The collected blood was centrifuged at a rate of 3,000 rpm for 15 min, followed by measurement of the activities of aspartate transaminase (AST) and alanine transaminase (ALT) by means of the Lippie method.

[2] = tested on: isolated liver cells of rats; experiment: Disorder of isolated liver cells (carbon tetrachloride vapor; ALT and AST leached out); type: cell-based; conditions: 37° C., 30 min, * p < 0.05
Procedure: Isolated liver cells of rats were prepared by means of the Segren's collagenase irrigation method, whereby a liver cell suspension was prepared to a concentration of […]. Into 2 ml of the suspension placed in an Erlenmeyer flask was put a test tube of about 0.5 ml capacity containing a 25% carbon tetrachloride solution in olive oil to saturate the reaction system with carbon tetrachloride vapor, and after the flask was tightly stoppered, preincubation was carried out at 37° C. for 30 min. One ml of a solution of the test compound in Hunk's solution was added to the suspension of liver cells, while 1 ml of Hunk's solution was added to a control. After the reaction was allowed to proceed at 37° C. for 30 min, a specifically determined volume of the reaction solution was pipetted out and immediately centrifuged under 500 g for 30 seconds, and ALT and AST leached out into the supernatant liquid were determined for activity by the Lippie method.

acetaldehyde toxicity = experiment: Protective activity against acetaldehyde toxicity (death rate within 24 hours); type: in vivo, Rats; conditions: 30 min before acetaldehyde 1,200 mg/kg, 24 h
Procedure: Rats kept fasting with a supply of drinking water were weighed and divided into groups in such a manner that the mean body weight was uniform among the groups, with each group consisting of 10 heads. The rats were given acetaldehyde orally at a dose of 1,200 mg/kg, and the death rate within 24 hours was determined, wherein the test drug substances were administered orally 30 min before the application of acetaldehyde, with the vehicle (0.5% aqueous sodium carboxymethylcellulose) alone being given to a control group.

[3] = tested on: Stomach injury through water-immersion constraint stress; experiment: Anti-ulcer test: stomach injury through water-immersion constraint stress; type: in vivo, male rats of KBL Wistar strain
Procedure: The rats were divided into groups each consisting of 8 heads in such a way that their mean body weights were nearly uniform among the groups, stress-loaded by soaking the animals placed in a stress cage of Univ. of Tokyo type in a water tank at 23° C. up to the xiphoid and then sacrificed through cervical vertebrae dislocation 7.5 hours later. The stomachs were removed and treated with formalin, and individual ulcers formed in the glandular portion of the stomach were measured in length (mm), with the measured ulcer lengths being summed for each rat. The test compound, suspended in a 0.5% aqueous solution of sodium carboxymethylcellulose, was given to the test group orally at a dose of 10 ml/kg body weight 30 min before the water-soaking constraint, whereas the vehicle alone was applied to a control group.

[4] = tested on: Stomach injury with hydrochloric acid/ethanol; experiment: Anti-ulcer test: stomach injury with hydrochloric acid/ethanol; type: in vivo, male rats of KBL Wistar strain
Procedure: The rats were divided into groups each consisting of 8 heads in such a way that their mean body weights were nearly uniform among the groups, treated by oral administration of hydrochloric acid/ethanol (0.15 mole hydrochloric acid solution in 80% ethanol) at a dose of 5 ml/kg body weight and sacrificed through cervical vertebrae dislocation 1 hour after administration. The stomachs were removed and treated with formalin, and individual ulcers formed in the glandular portion of the stomach were measured in length (mm), with the measured ulcer lengths summed for each rat. The test compound was suspended in a 0.5% aqueous solution of sodium carboxymethylcellulose, and the suspension was given to the test group orally at a dose of 10 ml/kg body weight 30 min before administration of hydrochloric acid/ethanol, whereas the vehicle (0.5% aqueous sodium carboxymethyl-cellulose) alone was applied to a control group.

[5] = tested on: Rats of KBL Wistar strain; experiment: Acute toxicity test; type: in vivo; conditions: 7 day period
Procedure: Rats of KBL Wistar strain (weighing about […]), divided into groups each consisting of 3 heads, were treated through oral administration of the test compound suspended in powder gum arabic, followed by observation for any abnormalities over a 7 day period to find the number of dead animals.

[6] = conc. of test soln. 0.0125 mg/dl
[7] = conc. of test soln. 0.025 mg/dl
[8] = 50 mg/kg orally, vs Vehicle No. 1
[9] = 150 mg/kg orally, vs Vehicle No. 3

SMILES: NCCS(=O)(=O)O [2-Aminoethanesulfonic acid]
- ALT, mean ± S.D. [1]: 14609.6 ± 1684.5 IU
- AST, mean ± S.D. [1]: 12885.2 ± 2468.3 IU
- suppressory activity (hepatopathy in mice) [1]: none of 2-aminoethanesulfonic acid, glutathione and glycyrrhizin that were used as controls at the same dose developed suppressory activity
- ALT, mean ± S.D. [2, 6]: 847.6 ± 60.4 IU
- AST, mean ± S.D. [2, 6]: 338.8 ± 37.1 IU
- ALT, mean ± S.D. [2, 7]: 869.8 ± 87.6 IU
- AST, mean ± S.D. [2, 7]: 309.8 ± 32.4 IU
- ALT, mean ± S.D. ([2]; conc. of test soln. 0.05 mg/dl): 849.1 ± 60.2 IU
- AST, mean ± S.D. ([2]; conc. of test soln. 0.05 mg/dl): 296.3 ± 30.5 IU
- ALT, mean ± S.D. ([2]; conc. of test soln. 0.1 mg/dl): 867.7 ± 158.8 IU
- AST, mean ± S.D. ([2]; conc. of test soln. 0.1 mg/dl): 318.8 ± 49.5 IU
- Death rate (acetaldehyde toxicity; 250 mg/kg orally): 60%
- No. of dead animals (n/10) (acetaldehyde toxicity; 250 mg/kg orally): 6/10
- Death rate (acetaldehyde toxicity; 500 mg/kg orally): 50%
- No. of dead animals (n/10) (acetaldehyde toxicity; 500 mg/kg orally): 5/10

SMILES: CC1(C)[C@@H](O[C@H]2O[C@H](C(=O)O)[C@@H](O)[C@H](O)[C@H]2O[C@@H]2O[C@H](C(=O)O)[C@@H](O)[C@H](O)[C@H]2O)CC[C@]2(C)[C@H]3C(=O)C=C4[C@@H]5C[C@@](C)(C(=O)O)CC[C@]5(C)CC[C@@]4(C)[C@]3(C)CC[C@@H]12 [Glycyrrhizin]
- ALT, mean ± S.D. [1]: 13362.1 ± 1753.1 IU
- AST, mean ± S.D. [1]: 12367.6 ± 1102.1 IU
- suppressory activity (hepatopathy in mice) [1]: none of 2-aminoethanesulfonic acid, glutathione and glycyrrhizin that were used as controls at the same dose developed suppressory activity

SMILES: N[C@@H](CCC(=O)N[C@@H](CS)C(=O)NCC(=O)O)C(=O)O [Glutathione]
- ALT, mean ± S.D. [1]: 12030.2 ± 1204.5 IU
- AST, mean ± S.D. [1]: 11423.3 ± 1960.8 IU
- suppressory activity (hepatopathy in mice) [1]: none of 2-aminoethanesulfonic acid, glutathione and glycyrrhizin that were used as controls at the same dose developed suppressory activity

SMILES: NCCS(=O)(=O)O.NCCS(=O)(=O)O.NCCS(=O)(=O)[O-].NCCS(=O)(=O)[O-].[Zn+2] [FTZ, [Bis(2-aminoethanesulfonic acid).bis(2-aminoethanesulfonate)]zinc]
- ALT, mean ± S.D. [1]: 8597.1 ± 1450.4 IU
- AST, mean ± S.D. [1]: 7024.7 ± 1113.4 IU
- Incidence of ulcer ([3]; 50 mg/kg orally): 8/8
- Ulcer coefficient (mm) mean ± S.E. ([3]; 50 mg/kg orally): 28.5 ± 4.6 mm
- Suppression % [3, 8]: 10.7%
- Incidence of ulcer ([3]; 100 mg/kg orally): 8/8
- Ulcer coefficient (mm) mean ± S.E. ([3]; 100 mg/kg orally, * p < 0.01): 14.4 ± 3.2 mm
- Suppression % ([3]; 100 mg/kg orally, vs Vehicle No. 2): 37.1%
- Incidence of ulcer ([3]; 150 mg/kg orally): 8/8
- Ulcer coefficient (mm) mean ± S.E. ([3]; 150 mg/kg orally, ** p < 0.01): 17.9 ± 3.2 mm
- Suppression % [3, 9]: 48.4%
- UD50 (mg/kg) (95% C.L.) ([3]; oral, 30 min before water-soaking constraint): 146.9 mg/kg
- ALT, mean ± S.D. [2, 6]: 414.7 ± 36.2 IU
- AST, mean ± S.D. [2, 6]: 198.2 ± 22.5 IU
- ALT, mean ± S.D. [2, 7]: 459.0 ± 93.8 IU
- AST, mean ± S.D. [2, 7]: 186.8 ± 35.3 IU
- ALT, mean ± S.D. ([2]; conc. of test soln. 0.05 mg/dl): 389.2 ± 7.3 IU
- AST, mean ± S.D. ([2]; conc. of test soln. 0.05 mg/dl): 79.4 ± 12.3 IU
- ALT, mean ± S.D. ([2]; conc. of test soln. 0.1 mg/dl): 435.7 ± 25.3 IU
- AST, mean ± S.D. ([2]; conc. of test soln. 0.1 mg/dl): 33.5 ± 3.5 IU
- Death rate (acetaldehyde toxicity; 250 mg/kg orally): 40%
- No. of dead animals (n/10) (acetaldehyde toxicity; 250 mg/kg orally): 4/10
- Death rate (acetaldehyde toxicity; 500 mg/kg orally): 20%
- No. of dead animals (n/10) (acetaldehyde toxicity; 500 mg/kg orally): 2/10
- Incidence of ulcer ([4]; 50 mg/kg orally): 8/8
- Ulcer coefficient (mm) mean ± S.E. ([4]; 50 mg/kg orally, * P < 0.01): 30.4 ± 7.8 mm
- Suppression % [4, 8]: 35.5%
- Incidence of ulcer ([4]; 75 mg/kg orally): 8/8
- Ulcer coefficient (mm) mean ± S.E. ([4]; 75 mg/kg orally): 30.2 ± 10.2 mm
- Suppression % ([4]; 75 mg/kg orally, vs Vehicle No. 2): 42.5%
- Incidence of ulcer ([4]; 150 mg/kg orally): 8/8
- Ulcer coefficient (mm) mean ± S.E. ([4]; 150 mg/kg orally, * P < 0.01): 11.7 ± 4.7 mm
- Suppression % [4, 9]: 67.9%
- UD50 (mg/kg) (95% C.L.) ([4]; oral, 30 min before hydrochloric acid/ethanol): 86.0 mg/kg
- Nd/No (No. of dead animals / total No.) ([5]; 1,250 mg/kg oral): 0/3
- Nd/No (No. of dead animals / total No.) ([5]; 2,500 mg/kg oral): 0/3
- Nd/No (No. of dead animals / total No.) ([5]; 5,000 mg/kg oral): 0/3
